# Experiments:
# ANO2 = target: T1, ANO2 (Homo sapiens, UniProt Q9NQ90); experiment: YFP fluorescence quenching assay in FRT cells expressing human ANO2; format: cell-based
# T1 sequence (Q9NQ90 1-998): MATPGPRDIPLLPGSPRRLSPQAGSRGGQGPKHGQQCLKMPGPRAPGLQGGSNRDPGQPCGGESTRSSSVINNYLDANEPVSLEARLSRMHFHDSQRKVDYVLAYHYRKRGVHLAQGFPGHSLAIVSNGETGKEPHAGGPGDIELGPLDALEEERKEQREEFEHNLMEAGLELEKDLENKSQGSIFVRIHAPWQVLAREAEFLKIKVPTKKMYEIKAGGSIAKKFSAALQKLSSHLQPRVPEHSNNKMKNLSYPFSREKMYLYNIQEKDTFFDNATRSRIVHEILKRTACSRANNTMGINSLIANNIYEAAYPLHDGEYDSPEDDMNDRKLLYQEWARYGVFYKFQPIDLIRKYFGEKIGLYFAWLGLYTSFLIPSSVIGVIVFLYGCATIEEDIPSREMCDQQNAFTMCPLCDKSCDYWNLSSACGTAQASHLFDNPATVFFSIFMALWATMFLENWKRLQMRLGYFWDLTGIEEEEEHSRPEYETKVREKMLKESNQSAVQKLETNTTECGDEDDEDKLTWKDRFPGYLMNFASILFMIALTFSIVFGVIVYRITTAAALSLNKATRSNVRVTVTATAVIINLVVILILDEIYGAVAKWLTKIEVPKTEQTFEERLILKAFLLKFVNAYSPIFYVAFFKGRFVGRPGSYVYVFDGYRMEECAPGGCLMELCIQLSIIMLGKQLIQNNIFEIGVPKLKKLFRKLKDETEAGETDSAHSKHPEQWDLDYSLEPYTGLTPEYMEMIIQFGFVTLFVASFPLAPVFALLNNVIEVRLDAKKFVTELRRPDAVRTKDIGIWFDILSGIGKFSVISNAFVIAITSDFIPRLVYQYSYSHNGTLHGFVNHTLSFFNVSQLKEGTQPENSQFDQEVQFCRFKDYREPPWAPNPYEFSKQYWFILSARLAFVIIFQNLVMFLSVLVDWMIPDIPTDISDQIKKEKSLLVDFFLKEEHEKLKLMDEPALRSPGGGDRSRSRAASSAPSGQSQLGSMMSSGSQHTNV
# [1] = target: T2, ANO1 (anoctamin1, TMEM16A) (Homo sapiens, UniProt Q5XXA6); experiment: YFP fluorescence quenching assay in FRT cells expressing human ANO1; confirmed by short-circuit current (PC-3 cells IC50 […]); format: cell-based
# T2 sequence (Q5XXA6 1-986): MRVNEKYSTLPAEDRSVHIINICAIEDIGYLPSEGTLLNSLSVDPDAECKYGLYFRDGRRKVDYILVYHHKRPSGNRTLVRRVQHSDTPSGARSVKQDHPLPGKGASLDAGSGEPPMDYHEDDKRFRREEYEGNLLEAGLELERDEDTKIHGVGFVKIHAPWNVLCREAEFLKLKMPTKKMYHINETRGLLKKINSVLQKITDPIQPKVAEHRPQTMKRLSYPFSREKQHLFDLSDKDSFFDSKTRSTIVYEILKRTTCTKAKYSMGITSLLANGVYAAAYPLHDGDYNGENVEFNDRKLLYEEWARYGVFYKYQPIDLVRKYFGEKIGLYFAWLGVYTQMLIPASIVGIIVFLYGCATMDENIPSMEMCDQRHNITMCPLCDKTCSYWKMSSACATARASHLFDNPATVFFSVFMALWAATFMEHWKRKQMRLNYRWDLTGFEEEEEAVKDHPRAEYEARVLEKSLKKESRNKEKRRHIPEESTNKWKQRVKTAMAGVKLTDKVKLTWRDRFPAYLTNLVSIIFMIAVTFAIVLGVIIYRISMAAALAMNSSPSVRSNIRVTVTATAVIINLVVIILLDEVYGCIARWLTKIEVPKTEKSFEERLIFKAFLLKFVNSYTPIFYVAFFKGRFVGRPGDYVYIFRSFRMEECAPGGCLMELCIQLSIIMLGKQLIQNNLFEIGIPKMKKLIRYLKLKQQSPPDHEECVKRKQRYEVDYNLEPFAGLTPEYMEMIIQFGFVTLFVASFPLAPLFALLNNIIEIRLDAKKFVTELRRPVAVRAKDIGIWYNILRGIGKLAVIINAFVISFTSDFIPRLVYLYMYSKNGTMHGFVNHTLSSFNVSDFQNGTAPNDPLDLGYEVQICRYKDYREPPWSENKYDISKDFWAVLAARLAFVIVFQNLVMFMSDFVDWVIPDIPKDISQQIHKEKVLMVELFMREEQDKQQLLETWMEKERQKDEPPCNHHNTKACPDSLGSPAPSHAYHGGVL
smiles,measurement,setting,value
C=CC1=C(C)C2=Cc3c(C=C)c(C)c4[n]3[Fe]([Cl])[n]3c(c(C)c(CCC(=O)O)c3=CC3=NC(=C4)C(C)=C3CCC(=O)O)=CC1=N2 [hemin],IC50,ANO2,4090 nM
same,IC50,[1],510 nM

# — publication PMC11172662, “Anticancer Effect of Hemin through ANO1 Inhibition in Human Prostate Cancer Cells” (International Journal of Molecular Sciences, 2024)
